Laboratory results published in US20250243196A1, “CITRON KINASE INHIBITORS” (The Cleveland Clinic Foundation, priority 2021, published 2025).

Experiments:
Experiment in all cases: KinaseProfiler panel
Format in all cases: biochemical
Parameters in all cases: dose or concentration left out as unconfirmed
Conditions in all cases: activity remaining
SAPK2a(h) = SAPK2a(h) (Homo sapiens (Human), UniProt Q16539)
VRK2(h) = VRK2(h) (Homo sapiens (Human), UniProt Q86Y07)
CDK5/p25(h) = CDK5/p25(h) (Homo sapiens (Human), UniProt Q00535)
EphA5(h) = EphA5(h) (Homo sapiens (Human), UniProt P54756)
CHK1(h) = CHK1(h) (Homo sapiens (Human), UniProt O14757)
Arg(h) = Arg(h) (Homo sapiens (Human), UniProt P42684)
Chain of Arg(h) (P42684 whole entry): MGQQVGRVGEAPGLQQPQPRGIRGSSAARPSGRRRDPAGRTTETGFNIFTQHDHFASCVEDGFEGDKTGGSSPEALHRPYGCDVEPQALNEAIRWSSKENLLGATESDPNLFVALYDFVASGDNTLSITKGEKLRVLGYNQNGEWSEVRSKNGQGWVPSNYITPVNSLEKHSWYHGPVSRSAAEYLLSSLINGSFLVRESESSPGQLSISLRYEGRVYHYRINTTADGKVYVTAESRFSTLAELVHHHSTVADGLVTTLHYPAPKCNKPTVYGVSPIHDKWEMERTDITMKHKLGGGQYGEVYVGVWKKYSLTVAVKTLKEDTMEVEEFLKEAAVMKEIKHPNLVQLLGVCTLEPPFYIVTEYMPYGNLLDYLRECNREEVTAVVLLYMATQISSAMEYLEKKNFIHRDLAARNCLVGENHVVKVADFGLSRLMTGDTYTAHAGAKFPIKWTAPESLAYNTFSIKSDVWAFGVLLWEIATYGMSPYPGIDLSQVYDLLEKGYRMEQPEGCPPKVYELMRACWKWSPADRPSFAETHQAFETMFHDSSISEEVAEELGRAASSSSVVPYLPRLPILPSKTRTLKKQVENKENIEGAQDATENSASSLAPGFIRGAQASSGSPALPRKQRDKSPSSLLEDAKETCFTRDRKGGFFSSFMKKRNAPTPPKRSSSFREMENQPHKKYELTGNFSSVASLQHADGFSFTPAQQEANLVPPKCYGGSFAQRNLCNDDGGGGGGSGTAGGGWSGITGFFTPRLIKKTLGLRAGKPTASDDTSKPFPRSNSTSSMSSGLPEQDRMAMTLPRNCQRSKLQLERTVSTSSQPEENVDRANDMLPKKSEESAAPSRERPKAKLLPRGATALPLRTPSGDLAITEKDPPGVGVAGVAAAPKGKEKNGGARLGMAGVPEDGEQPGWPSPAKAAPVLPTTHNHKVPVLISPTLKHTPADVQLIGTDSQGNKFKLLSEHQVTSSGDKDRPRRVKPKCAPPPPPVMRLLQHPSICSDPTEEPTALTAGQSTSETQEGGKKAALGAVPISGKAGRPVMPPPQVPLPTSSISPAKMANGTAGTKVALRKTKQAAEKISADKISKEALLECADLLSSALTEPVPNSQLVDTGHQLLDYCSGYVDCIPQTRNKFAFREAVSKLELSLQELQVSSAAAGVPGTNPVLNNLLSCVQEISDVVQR

Ron(h) = Ron(h) (Homo sapiens (Human), UniProt Q04912)
EphA2(h) = EphA2(h) (Homo sapiens (Human), UniProt P29317)
[1] = molecular target: PI3 Kinase (p110d/p85a)(h) (Homo sapiens (Human), UniProt O00329)
PKBγ(h) = PKBγ(h) (Homo sapiens (Human), UniProt Q9Y243)
SGK(h) = SGK(h) (Homo sapiens (Human), UniProt O00141)
Chain of SGK(h) (O00141 whole entry): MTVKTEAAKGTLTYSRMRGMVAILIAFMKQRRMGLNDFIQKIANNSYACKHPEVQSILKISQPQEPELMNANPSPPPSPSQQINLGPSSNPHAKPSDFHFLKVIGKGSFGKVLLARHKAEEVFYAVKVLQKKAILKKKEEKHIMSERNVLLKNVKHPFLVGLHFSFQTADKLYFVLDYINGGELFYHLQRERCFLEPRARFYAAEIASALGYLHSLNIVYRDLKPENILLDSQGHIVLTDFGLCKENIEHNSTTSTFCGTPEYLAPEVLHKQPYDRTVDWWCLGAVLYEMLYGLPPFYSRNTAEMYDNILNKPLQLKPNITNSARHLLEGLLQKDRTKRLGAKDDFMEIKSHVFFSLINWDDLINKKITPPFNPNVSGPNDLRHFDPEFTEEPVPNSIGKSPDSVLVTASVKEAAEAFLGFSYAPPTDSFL

TTBK2(h) = TTBK2(h) (Homo sapiens (Human), UniProt Q6IQ55)
IKKβ(h) = IKKβ(h) (Homo sapiens (Human), UniProt O14920)
IRR(h) = IRR(h) (Homo sapiens (Human), UniProt P14616)
PRP4(h) = PRP4(h) (Homo sapiens (Human), UniProt Q13523)
NDR2(h) = NDR2(h) (Homo sapiens (Human), UniProt Q9Y2H1)
Chain of NDR2(h) (Q9Y2H1 whole entry): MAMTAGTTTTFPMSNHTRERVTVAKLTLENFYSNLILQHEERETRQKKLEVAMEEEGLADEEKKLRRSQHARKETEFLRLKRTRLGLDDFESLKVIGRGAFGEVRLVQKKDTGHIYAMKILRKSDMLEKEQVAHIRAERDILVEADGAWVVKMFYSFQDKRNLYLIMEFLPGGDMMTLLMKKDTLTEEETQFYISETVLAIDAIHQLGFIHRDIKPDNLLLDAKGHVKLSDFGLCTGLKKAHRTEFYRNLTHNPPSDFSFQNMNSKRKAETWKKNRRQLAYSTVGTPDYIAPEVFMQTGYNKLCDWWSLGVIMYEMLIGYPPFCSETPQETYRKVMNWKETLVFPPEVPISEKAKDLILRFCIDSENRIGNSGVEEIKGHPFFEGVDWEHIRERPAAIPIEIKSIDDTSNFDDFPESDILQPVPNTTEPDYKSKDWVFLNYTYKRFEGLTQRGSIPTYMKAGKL

Wee1B(h) = Wee1B(h) (Homo sapiens (Human), UniProt P0C1S8)
PrKX(h) = PrKX(h) (Homo sapiens (Human), UniProt P51817)
WNK4(h) = WNK4(h) (Homo sapiens (Human), UniProt Q96J92)
STK32A(h) = STK32A(h) (Homo sapiens (Human), UniProt Q8WU08)
CDK4/cyclinD3(h) = CDK4/cyclinD3(h) (Homo sapiens (Human), UniProt P11802)
HRI(h) = HRI(h) (Homo sapiens (Human), UniProt Q9BQI3)
Chain of HRI(h) (Q9BQI3 whole entry): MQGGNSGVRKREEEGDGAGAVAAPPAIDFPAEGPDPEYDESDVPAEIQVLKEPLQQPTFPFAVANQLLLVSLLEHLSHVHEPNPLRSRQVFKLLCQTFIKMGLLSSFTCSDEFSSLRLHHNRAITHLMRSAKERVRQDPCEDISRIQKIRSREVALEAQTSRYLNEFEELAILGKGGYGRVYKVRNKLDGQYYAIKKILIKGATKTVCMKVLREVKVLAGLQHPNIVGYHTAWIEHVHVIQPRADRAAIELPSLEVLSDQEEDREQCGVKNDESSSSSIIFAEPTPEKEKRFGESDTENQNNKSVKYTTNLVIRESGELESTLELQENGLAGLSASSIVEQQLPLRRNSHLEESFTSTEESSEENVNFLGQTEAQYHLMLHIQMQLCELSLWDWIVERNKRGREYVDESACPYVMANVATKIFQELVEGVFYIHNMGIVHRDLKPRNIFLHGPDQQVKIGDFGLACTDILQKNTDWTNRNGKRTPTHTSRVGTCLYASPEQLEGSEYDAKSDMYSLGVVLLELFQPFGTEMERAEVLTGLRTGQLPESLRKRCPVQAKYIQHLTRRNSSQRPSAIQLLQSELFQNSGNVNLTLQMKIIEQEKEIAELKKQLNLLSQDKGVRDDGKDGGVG

IKKε(h) = IKKε(h) (Homo sapiens (Human), UniProt Q14164)
MRCKγ(h) = MRCKγ(h) (Homo sapiens (Human), UniProt Q6DT37)
BrSK1(h) = BrSK1(h) (Homo sapiens (Human), UniProt Q8TDC3)
Chain of BrSK1(h) (Q8TDC3 whole entry): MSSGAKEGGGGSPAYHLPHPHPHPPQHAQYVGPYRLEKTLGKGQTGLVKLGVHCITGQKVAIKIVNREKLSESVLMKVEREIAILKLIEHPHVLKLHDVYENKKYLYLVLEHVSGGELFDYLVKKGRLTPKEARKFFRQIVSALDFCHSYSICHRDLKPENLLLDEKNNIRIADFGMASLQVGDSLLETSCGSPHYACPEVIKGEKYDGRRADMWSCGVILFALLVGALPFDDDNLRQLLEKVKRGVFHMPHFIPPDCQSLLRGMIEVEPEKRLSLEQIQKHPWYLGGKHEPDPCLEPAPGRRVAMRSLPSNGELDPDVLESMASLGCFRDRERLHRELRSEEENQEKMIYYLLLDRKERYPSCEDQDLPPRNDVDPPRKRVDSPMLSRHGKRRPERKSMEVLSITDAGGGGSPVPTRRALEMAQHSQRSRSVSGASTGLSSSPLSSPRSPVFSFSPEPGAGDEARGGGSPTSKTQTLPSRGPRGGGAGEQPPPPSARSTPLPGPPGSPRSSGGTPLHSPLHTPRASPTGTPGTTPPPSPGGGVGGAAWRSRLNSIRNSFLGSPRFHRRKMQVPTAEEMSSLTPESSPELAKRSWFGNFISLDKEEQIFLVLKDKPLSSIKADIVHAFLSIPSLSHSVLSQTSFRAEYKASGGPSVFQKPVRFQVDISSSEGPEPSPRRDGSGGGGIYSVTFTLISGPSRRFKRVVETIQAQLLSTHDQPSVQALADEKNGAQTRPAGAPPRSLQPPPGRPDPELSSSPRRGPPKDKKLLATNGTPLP

MAPKAP-K2(h) = MAPKAP-K2(h) (Homo sapiens (Human), UniProt P49137)
EphB1(h) = EphB1(h) (Homo sapiens (Human), UniProt P54762)
MELK(h) = MELK(h) (Homo sapiens (Human), UniProt Q14680)
Chain of MELK(h) (Q14680 whole entry): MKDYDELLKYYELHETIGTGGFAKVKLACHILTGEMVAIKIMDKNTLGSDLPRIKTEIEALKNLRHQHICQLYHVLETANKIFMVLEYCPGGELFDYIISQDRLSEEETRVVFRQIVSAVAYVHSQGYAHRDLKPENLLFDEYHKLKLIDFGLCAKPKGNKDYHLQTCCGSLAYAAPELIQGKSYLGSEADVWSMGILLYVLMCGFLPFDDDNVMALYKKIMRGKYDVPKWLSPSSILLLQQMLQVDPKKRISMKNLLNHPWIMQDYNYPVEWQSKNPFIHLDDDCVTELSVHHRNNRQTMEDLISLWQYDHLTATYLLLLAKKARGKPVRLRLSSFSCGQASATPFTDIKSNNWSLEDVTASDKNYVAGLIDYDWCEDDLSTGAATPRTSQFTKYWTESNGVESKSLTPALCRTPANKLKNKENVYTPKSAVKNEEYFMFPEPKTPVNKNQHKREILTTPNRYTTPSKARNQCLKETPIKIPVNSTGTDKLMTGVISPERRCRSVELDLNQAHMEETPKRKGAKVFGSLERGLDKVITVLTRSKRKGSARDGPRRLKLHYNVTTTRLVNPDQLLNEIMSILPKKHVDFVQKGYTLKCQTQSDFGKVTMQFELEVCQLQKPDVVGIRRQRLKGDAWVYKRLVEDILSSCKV

PAK1(h) = PAK1(h) (Homo sapiens (Human), UniProt Q13153)

Chain of VRK2(h) (Q86Y07 whole entry): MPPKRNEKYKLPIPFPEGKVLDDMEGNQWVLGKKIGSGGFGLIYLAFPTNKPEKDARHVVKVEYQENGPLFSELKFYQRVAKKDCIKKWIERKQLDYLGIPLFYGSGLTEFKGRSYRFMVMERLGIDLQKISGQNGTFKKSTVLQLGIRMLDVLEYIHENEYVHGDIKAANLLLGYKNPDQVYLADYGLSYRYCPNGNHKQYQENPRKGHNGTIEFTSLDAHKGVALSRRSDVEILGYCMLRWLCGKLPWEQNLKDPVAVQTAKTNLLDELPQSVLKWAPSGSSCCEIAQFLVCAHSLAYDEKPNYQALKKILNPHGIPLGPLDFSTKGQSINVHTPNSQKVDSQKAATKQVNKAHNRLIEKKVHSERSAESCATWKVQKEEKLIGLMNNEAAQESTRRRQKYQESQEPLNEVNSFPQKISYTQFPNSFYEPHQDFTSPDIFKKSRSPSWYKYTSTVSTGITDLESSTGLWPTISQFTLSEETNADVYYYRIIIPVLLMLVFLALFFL
Chain of SAPK2a(h) (Q16539 whole entry): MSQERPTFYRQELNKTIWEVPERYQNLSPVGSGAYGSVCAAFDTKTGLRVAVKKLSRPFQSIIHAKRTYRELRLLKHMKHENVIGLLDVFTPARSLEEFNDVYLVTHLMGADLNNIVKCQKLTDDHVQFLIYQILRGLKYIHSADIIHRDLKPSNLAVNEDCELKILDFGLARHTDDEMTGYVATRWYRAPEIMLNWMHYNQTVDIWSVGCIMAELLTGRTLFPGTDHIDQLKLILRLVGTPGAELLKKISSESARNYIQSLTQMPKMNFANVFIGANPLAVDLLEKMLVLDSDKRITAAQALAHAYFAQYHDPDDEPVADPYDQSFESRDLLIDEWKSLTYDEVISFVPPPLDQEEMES

Cc1cc2c(-c3ccc(NC(=O)[C@H](N)CC(C)(C)C)cc3C)ccnc2[nH]1 [Compound F-90, (2R)-2-Amino-4,4-dimethyl-N-[3-methyl-4-(2-methyl-1H-pyrrolo[2,3-b]pyridin-4-yl)phenyl]pentanamide]
% Activity (SAPK2a(h)): 94%
% Activity (VRK2(h)): 100%
% Activity (CDK5/p25(h)): 72%
% Activity (EphA5(h)): 89%
% Activity (CHK1(h)): 108%
% Activity (Arg(h)): 72%
% Activity (Ron(h)): 111%
% Activity (EphA2(h)): 95%
% Activity [1]: 110%
% Activity (PKBγ(h)): 101%
% Activity (SGK(h)): 113%
% Activity (TTBK2(h)): 94%
% Activity (IKKβ(h)): 99%
% Activity (IRR(h)): 110%
% Activity (PRP4(h)): 100%
% Activity (NDR2(h)): 107%
% Activity (Wee1B(h)): 88%
% Activity (PrKX(h)): 101%
% Activity (WNK4(h)): 97%
% Activity (STK32A(h)): 90%
% Activity (CDK4/cyclinD3(h)): 74%
% Activity (HRI(h)): 80%
% Activity (IKKε(h)): 87%
% Activity (MRCKγ(h)): 98%
% Activity (BrSK1(h)): 96%
% Activity (MAPKAP-K2(h)): 72%
% Activity (EphB1(h)): 83%
% Activity (MELK(h)): 82%
% Activity (PAK1(h)): 95%
